This is an account of results in EP4745151A1, “FIBROBLAST ACTIVATION PROTEIN LIGAND AND USE THEREOF” (Jiangsu Hengrui Pharmaceuticals Co., Ltd., priority 2023, dated 2025).

The conditions of data set [1]: rat, in vivo.
Procedure: (§1) Experimental animals: Germline: SD rat (Beijing Vital River Laboratory Animal Technology Co., Ltd.); Age: 5-6 weeks old; Body weight: 100-150 g.
(§2) • 1) Empty tubes for γ-counting were weighed and labelled in advance. • 2) After the test sample was injected into the tail vein of rats, animal blood samples were collected from the orbit at 2 min, 5 min, 15 min, 30 min, 1 h, 2 h, 4 h, 6 h, 24 h, 48 h and 72 h. The sample tubes containing blood were weighed. • 3) The net weight of the blood was calculated, and the radioactive count of the collected blood was determined using a γ-counter. • 4) The distribution of the labelled compound in the blood of rats at different time points was determined. The test sample was accurately diluted 100-fold, and 0.5 ml of the dilution was added to a counting tube to serve as a 1% ID standard (i.e., one percent of the injected dose). The radioactive counts of both the 1% ID standard and the biological samples were simultaneously determined using the γ-counter. • 5) The pharmacokinetic parameters were calculated using DAS software.
(§3) Data obtained from rat blood was expressed as the percentage of radioactive count per gram of blood relative to the total dose (radioactive count) (%ID/g). Specific calculation formula: [formula]
(§4) At the same time, the drug concentration in the blood was calculated on the basis of the radioactive count in the blood. Specific calculation formula: Plasma concentration (μCi/mL) = ((CPMBlood/CPMTotal administered dose) × D (μCi)Administered dose)/(w (g) Blood/i (g/mL)Blood density) [formula]
Data set [2] deals with U-87 MG cells. The conditions noted are these: mouse, in vivo.
Procedure: (§5) Experimental animals: Germline: B-NDG (Biocytogen Jiangsu Co., Ltd.); Age: 5-8 weeks old; Body weight: 20-24 g.
(§6) A sufficient quantity of U-87 MG cells was prepared and inoculated into the posterior position of the right forelimb of B-NDG mice in an inoculation volume of 100 µl, containing 50% Matrigel and 5 × 10^6 cells. After inoculation, the tumour volume and animal body weight were monitored twice a week. Model mice with a tumour volume between 200 and 500 m^3 were selected for enrolment in this experiment and randomly grouped on the basis of tumour volume.
The test system of data set [3] is U-87 MG cells. Description: In vivo efficacy experiment in U-87 MG model mice. Details: species or system B-NDG mice. Here is the method: A total of 90 mice were inoculated. When the tumour in the mice grew to about […], 40 mice with uniform tumour sizes were selected for study enrolment.
The administration regimen was as follows: • Route of administration: tail vein injection; • Administration volume: 0.03-0.07 mL/animal; • Administration frequency and dose: The control group was given PBS, the ^177Lu-FAP-2286 group was given a single dose of 0.8 mCi/animal, the ^177Lu-DOTA-09 0.4mCi group was given a single dose of 0.4 mCi/animal, the ^177Lu-DOTA-09 0.8 mCi group was given a single dose of 0.8 mCi/animal, the ^177Lu-DOTA-09 0.8mCi×2 group was given two doses of 0.8 mCi/animal, with an administration interval of 35 days. Each group included eight animals. The administration time and administration activity of each mouse were recorded in detail.
After tumour modelling, the tumour size was observed. On the day before administration or the day of administration, the tumour volume was measured using a digital calliper, and the animal body weight was recorded. The animals were evenly divided into five groups on the basis of tumour volume, as follows: control group, ^177Lu-FAP-2286 0.8 mCi group, ^177Lu-DOTA-09 0.4 mCi group, ^177Lu-DOTA-09 0.8 mCi group, and ^177Lu-DOTA-09 0.8 mCi*2 group, with eight animals in each group.
On the day of administration, the test sample was taken for preparation (the stock solution of the test sample was directly used), and the activity of the prepared solution was measured.
From the second day after administration, the stage of tumour and body weight measurement began. The tumour and body weight measurement was performed at least twice a week. During each measurement, the long and short diameters of the tumour were recorded. The measurements were kept at the same location as possible. The abnormalities and deaths of the animals were recorded in time. […] The tumour volume was calculated as follows: tumour volume (mm^3) = long diameter × short diameter × short diameter × 0.52.

Data set [4] is described as follows: PET/SPECT imaging test of labelled compounds in U-87 MG tumour-bearing mice. To be noted: B-NDG, mouse, tumour and kidney, iv, total radioactivity.
Procedure: as §5, §6
Data set [5] is described as follows: Plasma concentration (pharmacokinetic) experiment of 177Lu-labelled compounds. The conditions noted are these: for tissue uptake: SD, rat, whole blood, iv, total radioactivity.
Procedure: as §1, §2, §3, §4
Data set [6] has as its system U-87 MG cells. Description: PET/SPECT imaging test of labelled compounds in U-87 MG tumour-bearing mice. The conditions noted are these: for Tumour uptake: 177Lu-labelled.
Procedure: as §5, §6

Read-outs that look alike come from different tables or passages of the source. Numbered stars: 1 amine (or outer) side, 2 acyl side, 3 side chain; on linkers, the order of the positions; unused ones are H or OH. Bridge positions count the residues as written; N and C are the ends. Square brackets hold non-standard residues; d marks the D form. Peptide text beside a SMILES is read from it. * marks the point of attachment. TBMB(SCH2CH2NH-DOTA) = O=C(O)CN1CCN(CC(=O)O)CCN(CC(=O)NCCSCc2cc(C[*:1])cc(C[*:2])c2)CCN(CC(=O)O)CC1; Phe(2-CF3) = N[C@@H](Cc1ccccc1C(F)(F)F)C(=O)O; Hyp = O=C(O)[C@@H]1C[C@@H](O)CN1; Hexanoyl = CCCCCC(=O)*; Aib = CC(C)(N)C(=O)O

As to `CCCCCC(=O)N[C@H]1CSCc2cc(CSCCNC(=O)CN3CCN(CC(=O)O)CCN(CC(=O)O)CCN(CC(=O)O)CC3)cc(c2)CSC[C@@H](C(=O)O)NC(=O)[C@H](Cc2ccccc2)NC(=O)[C@H](CCC(N)=O)NC(=O)[C@H]([C@@H](C)O)NC(=O)[C@@H]2CCCN2C(=O)[C@@H]2CCCN2C1=O` [^177Lu-FAP-2286, metal not drawn], in data set [1], the Cl_obs is recorded as 0.53±0.08 µCi/h*%ID/g, the Cmax stood at 0.73±0.27 %ID/g, the MRTlast was 2.52 ± 0.34 h and the Vz_obs is on record as 1.50±0.97 µCi/%ID/g. In data set [1], this compound displayed a t1/2 of 1.29 ± 0.43 h. The “course of tumour uptake / intratumoral retention” value in the data set with U-87 MG cells [2] was “rapid decrease in intratumoral retention after 4 hours”. This compound returned a tumour inhibition rate with U-87 MG cells [3] (day 20 after administration, single dose of 0.8 mCi/animal) of 40.02%. Also, the tumour size with U-87 MG cells [3] (day 20 after administration, single dose of 0.8 mCi/animal, tail vein) was 1833.89 ± 338.00 mm^3. Besides, the median survival time in the data set on U-87 MG cells [3] (single dose of 0.8 mCi/animal) turned out to be 39 days. Further, in data set [4], the tissue to tissue ratio at 0.5 h came out at 3.29 ± 0.78, the tissue to tissue ratio at 1.5 h came out at 6.53 ± 1.12, the tissue to tissue ratio at 4 h turned out to be 9.82 ± 4.79 and the tissue to tissue ratio at 24 h turned out to be 2.75 ± 0.9.

Consider `CCCCCC(=O)N[C@H]1CSCc2cc(CSCCNC(=O)CN3CCN(CC(=O)O)CCN(CC(=O)O)CCN(CC(=O)O)CC3)cc(c2)CSC[C@@H](C(=O)O)NC(=O)[C@H](Cc2ccccc2C(F)(F)F)NC(=O)[C@H](CCC(N)=O)NC(=O)[C@H]([C@@H](C)O)NC(=O)[C@@H]2C[C@@H](O)CN2C(=O)[C@@H]2CCCN2C(=O)C(C)(C)NC1=O` [^177Lu-DOTA-09, metal not drawn] (Hexanoyl-C[Aib]P[Hyp]TQ[Phe(2-CF3)]C-OH; linker 1-8 via TBMB(SCH2CH2NH-DOTA)), for which, in data set [1], the “half-life (t1/2) compared with control” value was “significantly longer” and the t1/2 stood at 9.12 ± 4.69 h. In data set [5] (SD rat, tail vein, blood), this compound returned a Cl_obs of 0.10±0.02 µCi/h*%ID/g, a Cmax of 0.89±0.21 %ID/g, an MRTlast of 15.49 ± 0.36 h and a Vz_obs of 2.21±0.38 µCi/%ID/g. The tissue uptake in data set [5] (AUCINF_obs, SD rat, tail vein, blood) was found to be 5.28 ± 1.07. For the same compound, the tissue uptake in data set [5] (AUClast, SD rat, tail vein, blood) stood at 5.04 ± 0.94. For the same compound, the “mean residence time (MRTlast) compared with control” value in data set [5] (rats, versus 177Lu-FAP-2286, in words) was “significantly longer”. The “course of tumour uptake / intratumoral retention” value in the data set with U-87 MG cells [2] is “decreased slowly”. In addition, in the data set on U-87 MG cells [3] (during administration, all dose groups), the “body weight changes of mice” value is given as “No significant body weight changes”. Moreover, in data set [4], the tissue to tissue ratio at 0.5 h is 6.08 ± 1.62, the tissue to tissue ratio at 1.5 h came to 8.66 ± 0.73, the tissue to tissue ratio at 4 h came out at 11.8 ± 2.62 and the tissue to tissue ratio at 24 h turned out to be 19.4 ± 5.84. In the data set on U-87 MG cells [6] (Table 5, 0.5 h), this compound displayed a Tumour uptake of 29.52±2.98. In the data set on U-87 MG cells [6] (Table 5, 1.5 h), the Tumour uptake came out at 30.88±3.14. In the data set with U-87 MG cells [6] (Table 5, 4.0 h), this compound displayed a Tumour uptake of 31.09±3.88. In the data set on U-87 MG cells [6] (Table 5, 24h), the Tumour uptake is on record as 30.46±1.99. The same compound had a Tumour uptake with U-87 MG cells [6] (Table 5, 48h) of 24.10±2.21. In the data set with U-87 MG cells [6] (Table 5, 72h), this compound yielded a Tumour uptake of 20.59±1.91. Further, in the data set with U-87 MG cells [6] (Table 5, 168h), the Tumour uptake was 12.81±0.90. Also, the “tumour/kidney ratio compared with control” value with U-87 MG cells [6] (versus 177Lu-FAP-2286, in words) is “higher”.
